From paper PMC6270423, “Phytochemical, Antimicrobial and Antiprotozoal Evaluation of Garcinia Mangostana Pericarp and α-Mangostin, Its Major Xanthone Derivative” (Molecules, 2013)
Read-outs that look alike come from different tables or passages of the source. Values belong to the compound of their own block, whether it stands above or below them.

Key:
[1] = tested on: Mycobacterium intracellulare; test: Antimicrobial activity; format: cell-based, M. intracellulare
Protocol: (§1) Samples were tested for antimicrobial activity according to the Clinical Laboratory Standard Institution using American type of Culture Collection (ATCC) standard.

T. cruzi Tulahuen CL2 = test: Antitrypanosomal activity, T. cruzi on MRC-5 cells, LacZ reporter; format: cell-based, Trypanosoma cruzi; conditions: 7 days
Protocol: (§2) The integrated panel of microbial screens and standard screening methodologies were adopted as previously described. All assays were performed in triplicate at the Laboratory of Microbiology, Parasitology and Hygiene at the University of Antwerp (Antwerp, Belgium). Extracts were tested at five concentrations (64, 16, 4, 1 and 0.25 μg/mL) to establish a full dose-titration and determination of the IC50 (inhibitory concentration 50%). […] The selectivity of activity was assessed by simultaneous cytotoxicity evaluation on the MRC-5 fibroblast cell line.
(§3) Trypanosoma brucei Squib-427 strain (suramin-sensitive) was cultured at 37 °C and 5% CO2 in Hirumi-9 medium, supplemented with 10% fetal calf serum (FCS). About 1.5 × 10^4 trypomastigotes/well were added to each well and parasite growth was assessed after 72 h at 37 °C by adding resazurin [29]. For Chagas disease, T. cruzi Tulahuen CL2 (benznidazole-sensitive, LacZ-reporter strain) was maintained on MRC-5 cells in minimal essential medium (MEM) supplemented with 20 mM L-glutamine, 16.5 mM sodium hydrogen carbonate and 5% FCS. […] After incubation at 37 °C for 7 days, parasite growth was assessed by adding the substrate chlorophenol red α-D-galactopyranoside. The color reaction was read at 540 nm after 4 h and absorbance values were expressed as a percentage of the blank controls.

[2] = tested on: Chloroquine-resistant P. falciparum K 1-strain; test: Antiplasmodial activity, Malstat (pLDH) assay; format: cell-based; conditions: Plasmodium falciparum; K1 strain, 72 h
Protocol: as §2
Chloroquine-resistant P. falciparum K 1-strain was cultured in human erythrocytes O^+ at 37 °C under a low oxygen atmosphere (3% O2, 4% CO2, and 93% N2) in RPMI-1640, supplemented with 10% human serum. Infected human red blood cells (200 μL, 1% parasitaemia, 2% haematocrit) were added to each well and incubated for 72 h. After incubation, test plates were frozen at −20 °C. Parasite multiplication was measured using the Malstat assay, a colorimetric method based on the reduction of 3-acetyl pyridine adenine dinucleotide (APAD) by parasite-specific lactate-dehydrogenase (pLDH).

Mycobacterium cheleneoi = test: Antimicrobial activity; format: cell-based, M. cheleneoi
Protocol: as §1

[3] = tested on: L. infantum MHOM/MA (BE)/67 amastigotes; test: Antileishmanial activity, intracellular amastigotes in primary peritoneal mouse macrophages; format: cell-based, Leishmania infantum; conditions: 5 days
Protocol: The integrated panel of microbial screens and standard screening methodologies were adopted as previously described. All assays were performed in triplicate at the Laboratory of Microbiology, Parasitology and Hygiene at the University of Antwerp (Antwerp, Belgium). […] The selectivity of activity was assessed by simultaneous cytotoxicity evaluation on the MRC-5 fibroblast cell line. […] L. infantum MHOM/MA (BE)/67 amastigotes were collected from the spleen of an infected donor hamster and used to infect primary peritoneal mouse macrophages. To determine in vitro antileishmanial activity, 3 × 10^4 macrophages were seeded in each well of a 96-well plate. After 2 days outgrowth, 5 × 10^5 amastigotes/well, were added and incubated for 2 h at 37 °C. Pre-diluted plant extracts were subsequently added and the plates were further incubated for 5 days at 37 °C and 5% CO2. Parasite burdens (mean number of amastigotes/macrophage) were microscopically assessed on 500 cells after Giemsa staining of the […] expressed as a percentage of the blank controls without plant extract.

[4] = tested on: Trypanosoma brucei Squib-427 strain; test: Antitrypanosomal activity, T. brucei trypomastigotes, resazurin; format: cell-based; conditions: 72 h
Protocol: as §2, §3

[5] = Cytotoxicity assay, resazurin; format: cell-based; conditions: human, MRC-5 SV2 fibroblast cells
Protocol: The integrated panel of microbial screens and standard screening methodologies were adopted as previously described. All assays were performed in triplicate at the Laboratory of Microbiology, Parasitology and Hygiene at the University of Antwerp (Antwerp, Belgium). […] The selectivity of activity was assessed by simultaneous cytotoxicity evaluation on the MRC-5 fibroblast cell line. […] MRC-5 SV2 cells were cultivated in MEM, supplemented with L-glutamine (20 mM), 16.5 mM sodium hydrogen carbonate and 5% FCS. […] Cell viability was assessed fluorimetrically after 4 h of addition of resazurin. Fluorescence was measured (excitation 550 nm, emission 590 nm) and the results were expressed as % reduction in cell viability compared to control.

B. subtilis = test: Antimicrobial activity; format: cell-based, Bacillius subtilis; conditions: Bacillus subtilis
Protocol: as §1

Mycobacterium xenopi = test: Antimicrobial activity; format: cell-based, M. xenopi
Protocol: as §1

E. coli = test: Antimicrobial activity; format: cell-based; conditions: Escherichia coli
Protocol: as §1

S. aureus = test: Antimicrobial activity; format: cell-based; conditions: Staphylococcus aureus
Protocol: as §1

Mycobacterium smegmatis = test: Antimicrobial activity; format: cell-based; conditions: Mycolicibacterium smegmatis
Protocol: as §1

C. albicans = test: Antimicrobial activity; format: cell-based; conditions: Candida albicans
Protocol: as §1

P. aeruginosa = test: Antimicrobial activity; format: cell-based; conditions: Pseudomonas aeruginosa
Protocol: as §1

melting point: 152 to 154 °C
SMILES: COc1cc2oc3cc(OC)c(OC)c(CC=C(C)C)c3c(=O)c2c(O)c1CC=C(C)C

SMILES: COc1c(O)cc2oc3cc(O)c(CC=C(C)C)c(O)c3c(=O)c2c1CC=C(C)C [α-Mangostin]
MIC ([1]; read-out: MIC Mycobacterium intracellulare): 3.7 µM | MIC ([1]; read-out: MIC Mycobacterium species (M. intracellulare)): 1.5 µg/mL | IC50 (T. cruzi Tulahuen CL2): 8.9 µM | IC50 (T. cruzi Tulahuen CL2; Trypanosoma cruzi, TULAHUEN, MRC5, 168 h): 8 to 9 µM | IC50 [2]: 2.2 µM | MIC (Mycobacterium cheleneoi; read-out: MIC Mycobacterium cheleneoi): 3.7 µM | MIC (Mycobacterium cheleneoi; read-out: MIC Mycobacterium species (M. cheleneoi)): 1.5 µg/mL | IC50 [3]: 8 µM | IC50 ([3]; Leishmania infantum, Macrophage, 120 h): 8 to 9 µM | IC50 [4]: 7.9 µM | IC50 ([4]; Trypanosoma brucei): 8 to 9 µM | IC50 at 72 h [5]: 7.5 µM | MIC (B. subtilis): 3.9 µM | MIC (B. subtilis; text): 1.6 µg/mL | MIC (Mycobacterium xenopi; read-out: MIC Mycobacterium species (M. xenopi)): 1.5 µg/mL | MIC (Mycobacterium xenopi; read-out: MIC Mycobacterium xenopi): 3.7 µM | MIC (E. coli): > 200 µM | IC50 (E. coli; no activity at all): > 200 µg/mL | MIC (S. aureus): 7.8 µM | MIC (S. aureus; text): 3.2 µg/mL | MIC (Mycobacterium smegmatis; read-out: MIC Mycobacterium smegmatis): 3.7 µM | MIC (Mycobacterium smegmatis; read-out: MIC Mycobacterium species (M. smegmatis)): 1.5 µg/mL | MIC (C. albicans): > 200 µM | IC50 (C. albicans; no activity at all): > 200 µg/mL | MIC (P. aeruginosa): > 200 µM | IC50 (P. aeruginosa; no activity at all): > 200 µg/mL
